Assay results: ChEMBL document CHEMBL1153581, “Synthesis, antiviral and anticancer activity of some novel thioureas derived from N-(4-nitro-2-phenoxyphenyl)-methanesulfonamide” (Eur J Med Chem, 2009)
Values after ≈ are worked out from the molar mass of the structure shown.

Each molecule was assayed on Vaccinia virus (assay: Antiviral activity against Vaccinia virus infected in human HEL cells assessed as protection against virus-induced cytopathogenicity). Conditions: Orthopoxvirus vaccinia.
Format: functional
`CCCNC(=S)Nc1ccc(NS(C)(=O)=O)c(Oc2ccccc2)c1` gave an MIC50 greater than 40 µg/mL. `CNC(=S)Nc1ccc(NS(C)(=O)=O)c(Oc2ccccc2)c1` showed an MIC50 of 100 µg/mL (≈ 285 µM). With `CCNC(=S)Nc1ccc(NS(C)(=O)=O)c(Oc2ccccc2)c1` the MIC50 was 40 µg/mL (≈ 109 µM). With `CS(=O)(=O)Nc1ccc(NC(=S)NCCc2ccccc2)cc1Oc1ccccc1` the MIC50 was greater than 8 µg/mL. In the case of `CS(=O)(=O)Nc1ccc(NC(=S)NC2CCCCC2)cc1Oc1ccccc1`, the MIC50 is reported as greater than 8 µg/mL. For `C=CCNC(=S)Nc1ccc(NS(C)(=O)=O)c(Oc2ccccc2)c1`, the MIC50 was greater than 40 µg/mL. `CS(=O)(=O)Nc1ccc(NC(=S)NCCc2ccc(Cl)cc2)cc1Oc1ccccc1` showed an MIC50 greater than 100 µg/mL. In the case of `CS(=O)(=O)Nc1ccc(NC(=S)NCc2ccccc2)cc1Oc1ccccc1`, the MIC50 is reported as greater than 8 µg/mL. For `CS(=O)(=O)Nc1ccc(NC(=S)Nc2ccc([N+](=O)[O-])cc2)cc1Oc1ccccc1`, the MIC50 was 8 µg/mL (≈ 17.4 µM). `Nc1nc2c(ncn2COCCO)c(=O)[nH]1` [ACYCLOVIR] gave an MIC50 greater than 250 µg/mL. For `O=c1[nH]c(=O)n([C@H]2C[C@H](O)[C@@H](CO)O2)cc1/C=C/Br` [BRIVUDINE], the MIC50 was 2 µg/mL (≈ 6 µM). Work on `Nc1nc2c(ncn2COC(CO)CO)c(=O)[nH]1` [GANCICLOVIR] yielded an MIC50 of 100 µg/mL (≈ 392 µM). `NC(=O)c1ncn([C@@H]2O[C@H](CO)[C@@H](O)[C@H]2O)n1` [RIBAVIRIN] was tested, and the MIC50 was 150 µg/mL (≈ 614 µM).
